Results reported in ChEMBL document CHEMBL4507304, “Data for DCP probe TP-021” (2021).

Key:
[1] = molecular target: Mitogen-activated protein kinase kinase kinase 5 (Homo sapiens) (UniProt Q99683); settings: Compound concentration 1000.0 nM
[2] = molecular target: Mitogen-activated protein kinase kinase kinase 6 (Homo sapiens) (UniProt O95382); settings: Compound concentration 1000.0 nM
[3] = molecular target: Aurora kinase A (Homo sapiens) (UniProt O14965); settings: Compound concentration 1000.0 nM
[4] = molecular target: Cytoplasmic tyrosine-protein kinase BMX (Homo sapiens) (UniProt P51813); settings: Compound concentration 1000.0 nM
[5] = molecular target: Calcium/calmodulin-dependent protein kinase type 1B (Homo sapiens) (UniProt Q6P2M8); settings: Compound concentration 1000.0 nM
[6] = molecular target: Calcium/calmodulin-dependent protein kinase type 1G (Homo sapiens) (UniProt Q96NX5); settings: Compound concentration 1000.0 nM
[7] = molecular target: Calcium/calmodulin-dependent protein kinase kinase 1 (Homo sapiens) (UniProt Q8N5S9); settings: Compound concentration 1000.0 nM
[8] = molecular target: Cyclin-dependent kinase 3 (Homo sapiens) (UniProt Q00526); settings: Compound concentration 1000.0 nM
Sequence of Cyclin-dependent kinase 3 (Homo sapiens) (Q00526 whole entry, looked up): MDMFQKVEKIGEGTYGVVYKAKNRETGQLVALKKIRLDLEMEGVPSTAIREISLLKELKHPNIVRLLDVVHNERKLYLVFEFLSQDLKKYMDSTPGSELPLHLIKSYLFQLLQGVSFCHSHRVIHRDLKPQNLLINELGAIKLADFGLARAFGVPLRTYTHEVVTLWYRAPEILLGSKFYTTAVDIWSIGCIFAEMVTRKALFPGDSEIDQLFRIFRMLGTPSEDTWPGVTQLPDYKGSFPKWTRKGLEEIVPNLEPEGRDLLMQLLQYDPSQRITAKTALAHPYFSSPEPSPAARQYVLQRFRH

[9] = molecular target: Megakaryocyte-associated tyrosine-protein kinase (Homo sapiens) (UniProt P42679); settings: Compound concentration 1000.0 nM
[10] = test system: Epidermal growth factor receptor (Homo sapiens), P00533 [UNDEFINED MUTATION]; settings: Compound concentration 1000.0 nM
[11] = molecular target: Ephrin type-A receptor 3 (Homo sapiens) (UniProt P29320); settings: Compound concentration 1000.0 nM
[12] = molecular target: Ephrin type-A receptor 6 (Homo sapiens) (UniProt Q9UF33); settings: Compound concentration 1000.0 nM
[13] = molecular target: Ephrin type-B receptor 3 (Homo sapiens) (UniProt P54753); settings: Compound concentration 1000.0 nM
Sequence of Ephrin type-B receptor 3 (Homo sapiens) (P54753 whole entry): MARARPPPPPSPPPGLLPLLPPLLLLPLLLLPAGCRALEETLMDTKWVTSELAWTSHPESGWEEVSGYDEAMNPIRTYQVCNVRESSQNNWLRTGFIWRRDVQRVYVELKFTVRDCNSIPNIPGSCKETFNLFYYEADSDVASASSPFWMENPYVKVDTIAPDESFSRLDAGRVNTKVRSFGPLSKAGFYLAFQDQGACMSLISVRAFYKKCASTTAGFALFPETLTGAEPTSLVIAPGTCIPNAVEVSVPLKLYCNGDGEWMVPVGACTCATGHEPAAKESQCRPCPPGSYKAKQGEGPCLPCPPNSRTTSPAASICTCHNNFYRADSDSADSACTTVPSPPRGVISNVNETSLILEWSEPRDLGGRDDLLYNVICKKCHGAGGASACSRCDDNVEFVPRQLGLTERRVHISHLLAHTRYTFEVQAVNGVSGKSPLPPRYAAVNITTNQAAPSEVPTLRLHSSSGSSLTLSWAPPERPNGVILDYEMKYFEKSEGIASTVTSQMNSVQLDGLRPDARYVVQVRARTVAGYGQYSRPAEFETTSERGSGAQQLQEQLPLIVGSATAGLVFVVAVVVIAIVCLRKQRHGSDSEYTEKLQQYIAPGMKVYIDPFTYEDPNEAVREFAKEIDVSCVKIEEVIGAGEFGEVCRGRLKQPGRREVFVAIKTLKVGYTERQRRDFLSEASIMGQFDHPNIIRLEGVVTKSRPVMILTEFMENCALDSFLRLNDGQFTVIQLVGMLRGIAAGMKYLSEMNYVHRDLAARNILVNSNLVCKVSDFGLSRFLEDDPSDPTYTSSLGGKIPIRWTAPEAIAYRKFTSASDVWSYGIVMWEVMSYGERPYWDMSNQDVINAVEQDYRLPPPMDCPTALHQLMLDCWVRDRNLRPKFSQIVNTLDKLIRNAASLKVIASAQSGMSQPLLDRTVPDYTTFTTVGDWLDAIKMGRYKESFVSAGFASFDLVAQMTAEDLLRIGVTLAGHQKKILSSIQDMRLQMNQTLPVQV

[14] = molecular target: Ephrin type-B receptor 6 (Homo sapiens) (UniProt O15197); settings: Compound concentration 1000.0 nM
[15] = molecular target: Mitogen-activated protein kinase 7 (Homo sapiens) (UniProt Q13164); settings: Compound concentration 1000.0 nM
[16] = molecular target: Receptor-type tyrosine-protein kinase FLT3 (Homo sapiens) (UniProt P36888); settings: Compound concentration 1000.0 nM
[17] = molecular target: Homeodomain-interacting protein kinase 1 (Homo sapiens) (UniProt Q86Z02); settings: Compound concentration 1000.0 nM
[18] = molecular target: Insulin receptor (Homo sapiens) (UniProt P06213); settings: Compound concentration 1000.0 nM
[19] = molecular target: Tyrosine-protein kinase JAK3 (Homo sapiens) (UniProt P52333); settings: Compound concentration 1000.0 nM
Sequence of Tyrosine-protein kinase JAK3 (Homo sapiens) (P52333 whole entry): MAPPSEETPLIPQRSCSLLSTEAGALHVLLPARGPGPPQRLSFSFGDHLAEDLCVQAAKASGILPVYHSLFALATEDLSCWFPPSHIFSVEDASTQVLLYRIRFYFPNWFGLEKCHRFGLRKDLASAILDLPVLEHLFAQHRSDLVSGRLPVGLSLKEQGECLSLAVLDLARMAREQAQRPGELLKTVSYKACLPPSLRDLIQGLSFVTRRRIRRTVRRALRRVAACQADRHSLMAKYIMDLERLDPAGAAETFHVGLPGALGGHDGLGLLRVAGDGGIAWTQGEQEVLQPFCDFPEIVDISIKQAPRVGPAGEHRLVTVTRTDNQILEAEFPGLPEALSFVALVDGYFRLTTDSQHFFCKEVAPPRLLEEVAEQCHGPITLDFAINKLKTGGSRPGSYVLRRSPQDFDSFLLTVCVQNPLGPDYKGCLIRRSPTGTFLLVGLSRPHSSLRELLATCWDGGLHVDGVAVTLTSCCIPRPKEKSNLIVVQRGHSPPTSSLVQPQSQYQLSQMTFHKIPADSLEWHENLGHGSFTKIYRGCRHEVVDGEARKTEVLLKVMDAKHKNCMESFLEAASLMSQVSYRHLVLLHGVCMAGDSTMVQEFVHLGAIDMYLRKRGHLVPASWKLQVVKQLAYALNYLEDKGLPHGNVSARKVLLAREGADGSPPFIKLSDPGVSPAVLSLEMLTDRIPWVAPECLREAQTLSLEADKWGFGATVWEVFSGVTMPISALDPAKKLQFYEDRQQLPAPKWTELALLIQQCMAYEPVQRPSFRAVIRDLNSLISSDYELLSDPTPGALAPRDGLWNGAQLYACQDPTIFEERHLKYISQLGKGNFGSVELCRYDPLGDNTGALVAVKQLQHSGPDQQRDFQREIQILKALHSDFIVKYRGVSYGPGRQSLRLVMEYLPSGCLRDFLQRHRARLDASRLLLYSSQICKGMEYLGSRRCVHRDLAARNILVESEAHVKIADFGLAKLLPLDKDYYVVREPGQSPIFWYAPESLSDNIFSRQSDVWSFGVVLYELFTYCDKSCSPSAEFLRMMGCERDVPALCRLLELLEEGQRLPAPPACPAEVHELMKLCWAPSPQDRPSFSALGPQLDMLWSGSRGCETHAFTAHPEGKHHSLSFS

[20] = molecular target: Serine/threonine-protein kinase 10 (Homo sapiens) (UniProt O94804); settings: Compound concentration 1000.0 nM
[21] = molecular target: Tyrosine-protein kinase Lyn (Homo sapiens) (UniProt P07948); settings: Compound concentration 1000.0 nM
[22] = molecular target: Serine/threonine-protein kinase MAK (Homo sapiens) (UniProt P20794); settings: Compound concentration 1000.0 nM
[23] = molecular target: Mitogen-activated protein kinase kinase kinase kinase 2 (Homo sapiens) (UniProt Q12851); settings: Compound concentration 1000.0 nM
[24] = molecular target: MAP kinase-activated protein kinase 2 (Homo sapiens) (UniProt P49137); settings: Compound concentration 1000.0 nM
[25] = molecular target: Tyrosine-protein kinase Mer (Homo sapiens) (UniProt Q12866); settings: Compound concentration 1000.0 nM
[26] = molecular target: Myosin light chain kinase (Homo sapiens) (UniProt Q32MK0); settings: Compound concentration 1000.0 nM
[27] = molecular target: Mitogen-activated protein kinase kinase kinase 10 (Homo sapiens) (UniProt Q02779); settings: Compound concentration 1000.0 nM
[28] = molecular target: Serine/threonine-protein kinase PAK 1 (Homo sapiens) (UniProt Q13153); settings: Compound concentration 1000.0 nM
[29] = molecular target: Platelet-derived growth factor receptor beta (Homo sapiens) (UniProt P09619); settings: Compound concentration 1000.0 nM
[30] = molecular target: Phosphatidylinositol 4,5-bisphosphate 3-kinase catalytic subunit alpha isoform (Homo sapiens) (UniProt P42336); settings: Compound concentration 1000.0 nM
[31] = test system: Phosphatidylinositol 4,5-bisphosphate 3-kinase catalytic subunit alpha isoform (Homo sapiens), P42336 [E545K]; settings: Compound concentration 1000.0 nM
Sequence of Phosphatidylinositol 4,5-bisphosphate 3-kinase catalytic subunit alpha isoform (Homo sapiens), P42336 [E545K] (P42336 whole entry E545K, canonical isoform): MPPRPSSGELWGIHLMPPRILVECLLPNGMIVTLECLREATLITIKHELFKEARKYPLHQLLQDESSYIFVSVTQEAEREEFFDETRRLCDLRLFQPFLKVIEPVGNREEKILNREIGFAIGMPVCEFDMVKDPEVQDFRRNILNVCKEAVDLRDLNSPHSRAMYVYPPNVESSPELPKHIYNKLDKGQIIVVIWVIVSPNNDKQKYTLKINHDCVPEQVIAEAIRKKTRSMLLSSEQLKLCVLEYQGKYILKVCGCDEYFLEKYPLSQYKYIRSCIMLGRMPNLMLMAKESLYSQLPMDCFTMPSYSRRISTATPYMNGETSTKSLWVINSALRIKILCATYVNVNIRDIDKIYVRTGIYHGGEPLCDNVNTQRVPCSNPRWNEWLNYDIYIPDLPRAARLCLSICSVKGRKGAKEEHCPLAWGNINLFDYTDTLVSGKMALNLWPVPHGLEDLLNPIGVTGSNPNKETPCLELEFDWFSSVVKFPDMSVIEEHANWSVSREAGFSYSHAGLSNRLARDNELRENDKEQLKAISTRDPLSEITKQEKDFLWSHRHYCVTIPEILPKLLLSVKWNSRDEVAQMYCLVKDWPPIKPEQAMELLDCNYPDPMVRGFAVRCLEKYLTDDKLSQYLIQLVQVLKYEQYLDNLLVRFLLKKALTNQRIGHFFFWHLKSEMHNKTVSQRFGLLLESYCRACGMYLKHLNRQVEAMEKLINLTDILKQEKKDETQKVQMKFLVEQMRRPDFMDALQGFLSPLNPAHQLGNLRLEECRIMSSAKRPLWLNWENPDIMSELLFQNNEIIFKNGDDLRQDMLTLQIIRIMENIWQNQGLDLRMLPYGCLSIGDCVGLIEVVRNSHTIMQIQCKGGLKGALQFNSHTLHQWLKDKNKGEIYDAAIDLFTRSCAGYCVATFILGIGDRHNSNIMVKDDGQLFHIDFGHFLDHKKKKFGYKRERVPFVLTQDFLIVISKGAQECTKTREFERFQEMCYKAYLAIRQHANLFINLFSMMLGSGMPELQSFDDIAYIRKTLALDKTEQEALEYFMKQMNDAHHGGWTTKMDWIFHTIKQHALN

[32] = molecular target: 1-phosphatidylinositol 3-phosphate 5-kinase (Homo sapiens) (UniProt Q9Y2I7); settings: Compound concentration 1000.0 nM
[33] = molecular target: Serine/threonine-protein kinase pim-2 (Homo sapiens) (UniProt Q9P1W9); settings: Compound concentration 1000.0 nM
[34] = molecular target: Serine/threonine-protein kinase pim-3 (Homo sapiens) (UniProt Q86V86); settings: Compound concentration 1000.0 nM
[35] = molecular target: Serine/threonine-protein kinase PLK1 (Homo sapiens) (UniProt P53350); settings: Compound concentration 1000.0 nM
Sequence of Serine/threonine-protein kinase PLK1 (Homo sapiens) (P53350 whole entry): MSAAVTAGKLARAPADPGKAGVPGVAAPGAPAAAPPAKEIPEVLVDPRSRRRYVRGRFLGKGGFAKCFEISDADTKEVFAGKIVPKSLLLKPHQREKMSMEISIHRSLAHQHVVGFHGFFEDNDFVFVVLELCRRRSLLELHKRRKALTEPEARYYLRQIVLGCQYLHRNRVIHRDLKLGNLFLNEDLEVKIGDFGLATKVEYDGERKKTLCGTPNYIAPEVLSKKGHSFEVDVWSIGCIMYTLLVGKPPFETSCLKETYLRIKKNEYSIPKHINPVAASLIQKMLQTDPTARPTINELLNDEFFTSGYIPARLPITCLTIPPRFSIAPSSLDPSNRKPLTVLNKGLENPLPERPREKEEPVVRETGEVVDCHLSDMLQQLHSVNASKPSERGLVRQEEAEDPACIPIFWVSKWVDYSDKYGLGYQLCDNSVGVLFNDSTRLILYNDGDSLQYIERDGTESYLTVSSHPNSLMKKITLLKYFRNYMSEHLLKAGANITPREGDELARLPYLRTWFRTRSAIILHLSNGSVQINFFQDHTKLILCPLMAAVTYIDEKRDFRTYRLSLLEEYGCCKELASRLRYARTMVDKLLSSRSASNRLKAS

[36] = molecular target: Protein kinase C eta type (Homo sapiens) (UniProt P24723); settings: Compound concentration 1000.0 nM
[37] = molecular target: Serine/threonine-protein kinase SIK2 (Homo sapiens) (UniProt Q9H0K1); settings: Compound concentration 1000.0 nM
[38] = molecular target: Mitogen-activated protein kinase kinase kinase 7 (Homo sapiens) (UniProt O43318); settings: Compound concentration 1000.0 nM
Sequence of Mitogen-activated protein kinase kinase kinase 7 (Homo sapiens) (O43318 whole entry): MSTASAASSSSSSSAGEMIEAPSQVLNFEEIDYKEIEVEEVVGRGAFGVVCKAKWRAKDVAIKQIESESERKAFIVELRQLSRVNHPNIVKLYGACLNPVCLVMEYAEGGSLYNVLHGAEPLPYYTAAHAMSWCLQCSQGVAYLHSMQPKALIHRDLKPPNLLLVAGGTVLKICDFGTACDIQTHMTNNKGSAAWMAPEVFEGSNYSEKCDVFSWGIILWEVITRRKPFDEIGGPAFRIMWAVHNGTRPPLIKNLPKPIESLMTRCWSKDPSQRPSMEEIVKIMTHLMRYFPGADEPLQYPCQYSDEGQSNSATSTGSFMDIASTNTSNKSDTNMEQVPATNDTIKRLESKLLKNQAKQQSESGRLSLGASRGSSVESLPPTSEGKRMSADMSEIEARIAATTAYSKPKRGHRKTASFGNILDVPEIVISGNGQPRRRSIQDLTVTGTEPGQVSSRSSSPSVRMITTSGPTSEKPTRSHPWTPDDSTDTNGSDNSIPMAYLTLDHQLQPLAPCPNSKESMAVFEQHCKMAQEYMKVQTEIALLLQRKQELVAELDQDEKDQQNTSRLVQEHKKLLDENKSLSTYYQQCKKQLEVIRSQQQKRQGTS

[39] = molecular target: Tyrosine-protein kinase Tec (Homo sapiens) (UniProt P42680); settings: Compound concentration 1000.0 nM
[40] = molecular target: Alpha-2B adrenergic receptor (Homo sapiens) (UniProt P18089); settings: Compound concentration 10.0 uM
[41] = molecular target: Alpha-2C adrenergic receptor (Homo sapiens) (UniProt P18825); settings: Compound concentration 10.0 uM
[42] = molecular target: Muscarinic acetylcholine receptor M2 (Homo sapiens) (UniProt P08172); settings: Compound concentration 10.0 uM
[43] = molecular target: GABA-A receptor; anion channel (Rattus norvegicus) (UniProt O09028+P15431+P18506+P18508+P19969+P20236+P23574+P23576+P28471+P28473+P30191+P62813+P63079+P63138+Q91ZM7+Q9ES14); settings: Compound concentration 10.0 uM
Rattus norvegicus = species: Rattus norvegicus; settings: Compound concentration 10.0 uM

N#Cc1ccc(Nc2ccc3[nH]c(=O)[nH]c3c2)c(Cl)c1
inactive: residual activity [1] 90% | residual activity [2] 100% | residual activity [3] 87% | residual activity [4] 100% | residual activity [5] 78% | residual activity [6] 100% | residual activity [7] 100% | residual activity [8] 100% | residual activity [9] 100% | residual activity [10] 100% | residual activity [11] 86% | residual activity [12] 82% | residual activity [13] 100% | residual activity [14] 100% | residual activity [15] 100% | residual activity [16] 100% | residual activity [17] 82% | residual activity [18] 95% | residual activity [19] 100% | residual activity [20] 100% | residual activity [21] 78% | residual activity [22] 100% | residual activity [23] 100% | residual activity [24] 100% | residual activity [25] 100% | residual activity [26] 93% | residual activity [27] 99% | residual activity [28] 85% | residual activity [29] 100% | residual activity [30] 77% | residual activity [31] 79% | residual activity [32] 82% | residual activity [33] 83% | residual activity [34] 100% | residual activity [35] 100% | residual activity [36] 97% | residual activity [37] 100% | residual activity [38] 90% | residual activity [39] 96% | inhibition [40] 13.1% | inhibition [41] 4.16% | inhibition [42] 3.51% | inhibition [43] 10.2% | inhibition (Rattus norvegicus) 3.22%

O=C1CCc2cc(Nc3cc(OC4CCOCC4)c([N+](=O)[O-])cc3Cl)ccc2N1
inactive: residual activity [1] 84% | residual activity [2] 91% | residual activity [3] 87% | residual activity [4] 69% | residual activity [5] 68% | residual activity [6] 100% | residual activity [7] 100% | residual activity [8] 100% | residual activity [9] 100% | residual activity [10] 100% | residual activity [11] 83% | residual activity [12] 80% | residual activity [13] 88% | residual activity [14] 100% | residual activity [15] 100% | residual activity [16] 90% | residual activity [17] 95% | residual activity [18] 93% | residual activity [19] 96% | residual activity [20] 100% | residual activity [21] 93% | residual activity [22] 100% | residual activity [23] 95% | residual activity [24] 99% | residual activity [25] 100% | residual activity [26] 100% | residual activity [27] 94% | residual activity [28] 88% | residual activity [29] 97% | residual activity [30] 79% | residual activity [31] 79% | residual activity [32] 83% | residual activity [33] 84% | residual activity [34] 100% | residual activity [35] 100% | residual activity [36] 86% | residual activity [37] 100% | residual activity [38] 95% | residual activity [39] 82% | inhibition [40] -0.04% | inhibition [41] -0.13% | inhibition [42] 5.41% | inhibition [43] 29.2% | inhibition (Rattus norvegicus) 13.4%
